# Experimental data: US9593156B2 (priority 2012, dated 2017)
# “And” between values parts separate entries of the source, which are not always exact repeats. Identical values can stand only once. Like-named read-outs stand apart in the source and are kept apart here.
# Legend:
# IGF-1 receptor [1] = molecular target: T1, IGF-1 receptor (Homo sapiens, UniProt P08069); experiment: IGF-1 receptor phosphorylation assay in receptor transfected HEK293 cells; type: cell-based; set-up: expressed in transfected cells; host or cells: HEK293
# insulin receptor [2] = molecular target: T2, insulin receptor (Homo sapiens, UniProt P06213); experiment: Insulin receptor phosphorylation assay in receptor transfected HEK293 cells; type: cell-based; set-up: expressed in transfected cells; host or cells: HEK293
# insulin receptor [3] = molecular target: T2, insulin receptor; experiment: Insulin receptor competition binding assay (scintillation proximity); set-up: expressed in transfected cells; plasma membrane fragments
# IGF-1 receptor [4] = molecular target: T1, IGF-1 receptor; experiment: IGF-1 receptor competition binding assay (scintillation proximity); set-up: expressed in transfected cells; plasma membrane fragments
# [5] = Table 9, IGF-1 receptor versus insulin receptor
# T1 sequence (P08069 31-736 limits assumed): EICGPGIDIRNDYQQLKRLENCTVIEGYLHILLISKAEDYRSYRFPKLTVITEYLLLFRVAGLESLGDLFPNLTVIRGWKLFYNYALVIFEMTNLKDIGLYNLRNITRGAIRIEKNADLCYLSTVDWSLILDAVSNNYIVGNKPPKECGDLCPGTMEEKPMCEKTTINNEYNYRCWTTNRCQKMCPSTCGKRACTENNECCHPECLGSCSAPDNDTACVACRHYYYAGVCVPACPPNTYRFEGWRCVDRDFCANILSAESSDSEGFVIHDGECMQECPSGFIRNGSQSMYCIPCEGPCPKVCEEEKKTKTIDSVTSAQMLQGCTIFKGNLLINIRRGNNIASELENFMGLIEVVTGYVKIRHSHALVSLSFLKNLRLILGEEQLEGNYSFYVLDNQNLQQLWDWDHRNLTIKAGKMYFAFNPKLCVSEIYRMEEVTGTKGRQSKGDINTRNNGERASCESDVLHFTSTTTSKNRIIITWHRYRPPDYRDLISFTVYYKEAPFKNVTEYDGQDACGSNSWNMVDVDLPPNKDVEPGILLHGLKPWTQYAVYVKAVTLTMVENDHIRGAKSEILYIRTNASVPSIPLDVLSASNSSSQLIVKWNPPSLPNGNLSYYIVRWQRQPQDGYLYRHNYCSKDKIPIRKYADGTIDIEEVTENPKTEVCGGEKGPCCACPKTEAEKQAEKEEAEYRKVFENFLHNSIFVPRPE
# T1 sequence (P08069 741-1367 partner limits assumed): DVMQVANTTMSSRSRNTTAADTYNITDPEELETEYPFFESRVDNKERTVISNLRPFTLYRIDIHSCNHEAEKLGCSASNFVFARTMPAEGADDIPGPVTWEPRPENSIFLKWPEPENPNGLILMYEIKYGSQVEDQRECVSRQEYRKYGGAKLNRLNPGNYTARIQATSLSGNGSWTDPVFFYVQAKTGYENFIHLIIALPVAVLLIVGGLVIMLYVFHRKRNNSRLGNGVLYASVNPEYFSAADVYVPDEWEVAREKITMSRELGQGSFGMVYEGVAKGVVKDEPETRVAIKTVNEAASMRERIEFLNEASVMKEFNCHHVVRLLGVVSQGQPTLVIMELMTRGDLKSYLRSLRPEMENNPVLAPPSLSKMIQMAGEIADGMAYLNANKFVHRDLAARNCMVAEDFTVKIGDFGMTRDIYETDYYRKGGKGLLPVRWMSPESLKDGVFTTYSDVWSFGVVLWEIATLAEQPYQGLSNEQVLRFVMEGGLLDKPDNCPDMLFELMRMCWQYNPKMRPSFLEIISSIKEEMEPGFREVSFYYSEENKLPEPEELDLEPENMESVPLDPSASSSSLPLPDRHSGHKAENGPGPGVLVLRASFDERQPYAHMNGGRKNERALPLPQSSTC
# T2 sequence (P06213 28-758 limits assumed): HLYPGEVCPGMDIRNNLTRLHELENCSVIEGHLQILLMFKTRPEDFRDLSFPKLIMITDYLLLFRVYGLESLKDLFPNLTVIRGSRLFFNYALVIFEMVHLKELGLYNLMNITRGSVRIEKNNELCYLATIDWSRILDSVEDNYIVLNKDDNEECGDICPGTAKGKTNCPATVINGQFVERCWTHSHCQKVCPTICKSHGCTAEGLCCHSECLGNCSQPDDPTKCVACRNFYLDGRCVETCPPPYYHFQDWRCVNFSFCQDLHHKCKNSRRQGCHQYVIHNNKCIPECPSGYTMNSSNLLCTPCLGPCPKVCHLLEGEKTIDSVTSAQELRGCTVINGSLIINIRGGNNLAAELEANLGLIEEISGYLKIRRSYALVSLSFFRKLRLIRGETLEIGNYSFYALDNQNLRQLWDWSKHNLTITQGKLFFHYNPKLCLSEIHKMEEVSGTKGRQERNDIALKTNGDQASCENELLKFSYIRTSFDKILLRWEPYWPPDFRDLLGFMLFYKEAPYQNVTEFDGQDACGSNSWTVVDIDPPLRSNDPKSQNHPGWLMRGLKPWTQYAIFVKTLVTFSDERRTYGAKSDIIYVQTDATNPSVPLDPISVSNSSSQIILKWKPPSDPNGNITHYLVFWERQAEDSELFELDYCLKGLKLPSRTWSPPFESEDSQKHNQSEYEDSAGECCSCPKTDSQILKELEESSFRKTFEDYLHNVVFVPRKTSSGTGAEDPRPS
# T2 sequence (P06213 763-1382 partner limits assumed): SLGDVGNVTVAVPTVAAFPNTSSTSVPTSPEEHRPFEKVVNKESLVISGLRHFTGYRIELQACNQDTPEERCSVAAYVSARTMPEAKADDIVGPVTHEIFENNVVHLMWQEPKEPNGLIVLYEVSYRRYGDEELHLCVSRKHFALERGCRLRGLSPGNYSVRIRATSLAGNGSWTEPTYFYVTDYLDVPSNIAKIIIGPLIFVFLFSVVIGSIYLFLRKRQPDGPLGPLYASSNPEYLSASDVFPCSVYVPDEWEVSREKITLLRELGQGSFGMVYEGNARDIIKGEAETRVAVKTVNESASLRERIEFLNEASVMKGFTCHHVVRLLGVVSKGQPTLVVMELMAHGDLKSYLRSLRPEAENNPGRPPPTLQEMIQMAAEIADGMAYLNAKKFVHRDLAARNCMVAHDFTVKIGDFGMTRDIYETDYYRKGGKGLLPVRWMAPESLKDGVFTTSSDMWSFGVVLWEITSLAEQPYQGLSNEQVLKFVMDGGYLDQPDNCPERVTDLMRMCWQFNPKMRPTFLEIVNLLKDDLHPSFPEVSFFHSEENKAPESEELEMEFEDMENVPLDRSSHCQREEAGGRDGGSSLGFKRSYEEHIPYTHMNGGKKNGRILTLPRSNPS
compound,measurement,setting,value
CC[C@H](C)[C@H](NC(=O)CN)C(=O)N[C@H](C(=O)N[C@@H](CC(=O)O)C(=O)N[C@@H](CCC(=O)O)C(=O)N[C@H]1CSSC[C@@H]2NC(=O)[C@H](CO)NC(=O)[C@H](C)NC(=O)[C@H](Cc3c[nH]cn3)NC(=O)[C@H](CSSC[C@H](NC(=O)[C@H](CC(C)C)NC(=O)[C@H](Cc3c[nH]cn3)NC(=O)[C@H](CCC(=O)O)NC(=O)[C@@H]3CCCN3C(=O)CN)C(=O)NCC(=O)N[C@@H](C)C(=O)N[C@@H](CC(=O)O)C(=O)N[C@@H](CC(C)C)C(=O)N[C@@H](C(C)C)C(=O)N[C@@H](CC(=O)O)C(=O)N[C@@H](C)C(=O)N[C@@H](CC(C)C)C(=O)N[C@@H](Cc3ccc(O)cc3)C(=O)N[C@@H](CC(C)C)C(=O)N[C@@H](C(C)C)C(=O)N[C@H](C(=O)NCC(=O)N[C@@H](CC(=O)O)C(=O)N[C@@H](C)C(=O)NCC(=O)N[C@@H](Cc3ccccc3)C(=O)N[C@@H](Cc3ccc(O)cc3)C(N)=O)CSSC[C@@H](C(=O)N[C@@H](CC(N)=O)C(=O)O)NC(=O)[C@H](Cc3ccc(O)cc3)NC(=O)[C@H](CCSC)NC(=O)[C@H](CCC(=O)O)NC(=O)[C@H](CC(C)C)NC(=O)[C@H](CCCNC(=N)N)NC(=O)[C@H](CCCNC(=N)N)NC(=O)[C@H](CC(C)C)NC(=O)[C@H](CC(=O)O)NC2=O)NC1=O)C(C)C,% IGF,IGF-1 receptor [1],7.7%
same,Selective Ratio,IGF-1 receptor [1],32.54
same,% Insulin,insulin receptor [2],360% and 614%
same,% insulin (in test),insulin receptor [3],1171.4%
same,% IGF-1 (in test),IGF-1 receptor [4],2.3%
same,Ratio,IGF-1 receptor [4],190.3
CC[C@H](C)[C@H](NC(=O)CN)C(=O)N[C@H](C(=O)N[C@@H](CC(=O)O)C(=O)N[C@@H](CCC(=O)O)C(=O)N[C@H]1CSSC[C@@H]2NC(=O)[C@H](CO)NC(=O)[C@H](C)NC(=O)[C@H](Cc3c[nH]cn3)NC(=O)[C@H](CSSC[C@H](NC(=O)[C@H](CC(C)C)NC(=O)[C@H](Cc3c[nH]cn3)NC(=O)[C@H](CCC(=O)O)NC(=O)[C@@H]3CCCN3C(=O)CN)C(=O)NCC(=O)N[C@@H](C)C(=O)N[C@@H](CC(=O)O)C(=O)N[C@@H](CC(C)C)C(=O)N[C@@H](C(C)C)C(=O)N[C@@H](CC(=O)O)C(=O)N[C@@H](C)C(=O)N[C@@H](CC(C)C)C(=O)N[C@@H](Cc3ccc(O)cc3)C(=O)N[C@@H](CC(C)C)C(=O)N[C@@H](C(C)C)C(=O)N[C@H](C(=O)NCC(=O)N[C@@H](CC(=O)O)C(=O)N[C@@H](CCCNC(=N)N)C(=O)NCC(=O)N[C@@H](Cc3ccccc3)C(=O)N[C@@H](Cc3ccc(O)cc3)C(N)=O)CSSC[C@@H](C(=O)N[C@@H](CC(N)=O)C(=O)O)NC(=O)[C@H](Cc3ccc(O)cc3)NC(=O)[C@H](CCSC)NC(=O)[C@H](CCC(=O)O)NC(=O)[C@H](CC(C)C)NC(=O)[C@H](CCCNC(=N)N)NC(=O)[C@H](CCCNC(=N)N)NC(=O)[C@H](CC(C)C)NC(=O)[C@H](CC(=O)O)NC2=O)NC1=O)C(C)C,% IGF,"IGF-1 receptor [1]; Table 10, IGF-1 Receptor",181.395%
same,% Insulin,"insulin receptor [2]; Table 10, Insulin Receptor, listed as IGF-1 A (H8 A9 N21) B(H5D10Y16L17) DPI A-COOH",840% and 1080%
same,% insulin (in test),"insulin receptor [3]; Table 9, Insulin Receptor",1576.7% and 1667.0%
same,% IGF-1 (in test),"IGF-1 receptor [4]; Table 9, IGF-1 Receptor",12.9%
same,Ratio,IGF-1 receptor [4]; [5],80.6
CC[C@H](C)[C@H](NC(=O)CN)C(=O)N[C@H](C(=O)N[C@@H](CC(=O)O)C(=O)N[C@@H](CCC(=O)O)C(=O)N[C@H]1CSSC[C@@H]2NC(=O)[C@H](CO)NC(=O)[C@H](CCCNC(=N)N)NC(=O)[C@H](Cc3ccccc3)NC(=O)[C@H](CSSC[C@H](NC(=O)[C@H](CC(C)C)NC(=O)[C@H](Cc3c[nH]cn3)NC(=O)[C@H](CCC(=O)O)NC(=O)[C@@H]3CCCN3C(=O)CN)C(=O)NCC(=O)N[C@@H](C)C(=O)N[C@@H](CC(=O)O)C(=O)N[C@@H](CC(C)C)C(=O)N[C@@H](C(C)C)C(=O)N[C@@H](CC(=O)O)C(=O)N[C@@H](C)C(=O)N[C@@H](CC(C)C)C(=O)N[C@@H](Cc3ccc(O)cc3)C(=O)N[C@@H](CC(C)C)C(=O)N[C@@H](C(C)C)C(=O)N[C@H](C(=O)NCC(=O)N[C@@H](CC(=O)O)C(=O)N[C@@H](CCCNC(=N)N)C(=O)NCC(=O)N[C@@H](Cc3ccccc3)C(=O)N[C@@H](Cc3ccc(O)cc3)C(N)=O)CSSC[C@@H](C(=O)N[C@@H](C)C(N)=O)NC(=O)[C@H](Cc3ccc(O)cc3)NC(=O)[C@H](CCSC)NC(=O)[C@H](CCC(=O)O)NC(=O)[C@H](CC(C)C)NC(=O)[C@H](CCCNC(=N)N)NC(=O)[C@H](CCCNC(=N)N)NC(=O)[C@H](CC(C)C)NC(=O)[C@H](CC(=O)O)NC2=O)NC1=O)C(C)C [IGF-1 A:B (H5D10Y16L17) DPI],% IGF,"IGF-1 receptor [1]; Table 10, IGF-1 Receptor",7.1%
same,% insulin (in test),"insulin receptor [3]; Table 9, Insulin Receptor",479.0%
same,% IGF-1 (in test),"IGF-1 receptor [4]; Table 9, IGF-1 Receptor",11.2%
same,Ratio,IGF-1 receptor [4]; [5],29.1
CC[C@H](C)[C@H](NC(=O)CN)C(=O)N[C@H](C(=O)N[C@@H](CC(=O)O)C(=O)N[C@@H](CCC(=O)O)C(=O)N[C@H]1CSSC[C@@H]2NC(=O)[C@H](CO)NC(=O)[C@H](CCCNC(=N)N)NC(=O)[C@H](Cc3ccccc3)NC(=O)[C@H](CSSC[C@H](NC(=O)[C@H](CC(C)C)NC(=O)[C@@H](NC(=O)[C@H](CCC(=O)O)NC(=O)[C@@H]3CCCN3C(=O)CN)[C@@H](C)O)C(=O)NCC(=O)N[C@@H](C)C(=O)N[C@@H](CC(=O)O)C(=O)N[C@@H](CC(C)C)C(=O)N[C@@H](C(C)C)C(=O)N[C@@H](CC(=O)O)C(=O)N[C@@H](C)C(=O)N[C@@H](CC(C)C)C(=O)N[C@@H](Cc3ccc(O)cc3)C(=O)N[C@@H](CC(C)C)C(=O)N[C@@H](C(C)C)C(=O)N[C@H](C(=O)NCC(=O)N[C@@H](CC(=O)O)C(=O)N[C@@H](CCCNC(=N)N)C(=O)NCC(=O)N[C@@H](Cc3ccccc3)C(=O)N[C@@H](Cc3ccc(O)cc3)C(N)=O)CSSC[C@@H](C(=O)N[C@@H](C)C(=O)O)NC(=O)[C@H](Cc3ccc(O)cc3)NC(=O)[C@H](CCSC)NC(=O)[C@H](CCC(=O)O)NC(=O)[C@H](CC(C)C)NC(=O)[C@H](CCCNC(=N)N)NC(=O)[C@H](CCCNC(=N)N)NC(=O)[C@H](CC(C)C)NC(=O)[C@H](CC(=O)O)NC2=O)NC1=O)C(C)C [IGF-1 A:B(D10Y16L17) DPI A-COOH],% IGF,"IGF-1 receptor [1]; Table 10, IGF-1 Receptor",111.538%
same,% Insulin,"insulin receptor [2]; Table 10, Insulin Receptor",1575%
same,% IGF-1 (in test),"IGF-1 receptor [4]; Table 9, IGF-1 Receptor",7.7%
CC[C@H](C)[C@H](NC(=O)CN)C(=O)N[C@H](C(=O)N[C@@H](CC(=O)O)C(=O)N[C@@H](CCC(=O)O)C(=O)N[C@H]1CSSC[C@@H]2NC(=O)[C@H](CO)NC(=O)[C@H](CCCNC(=N)N)NC(=O)[C@H](Cc3ccccc3)NC(=O)[C@H](CSSC[C@H](NC(=O)[C@H](CC(C)C)NC(=O)[C@@H](NC(=O)[C@H](CCC(=O)O)NC(=O)[C@@H]3CCCN3C(=O)CN)[C@@H](C)O)C(=O)NCC(=O)N[C@@H](C)C(=O)N[C@@H](CCC(=O)O)C(=O)N[C@@H](CC(C)C)C(=O)N[C@@H](C(C)C)C(=O)N[C@@H](CC(=O)O)C(=O)N[C@@H](C)C(=O)N[C@@H](CC(C)C)C(=O)N[C@@H](Cc3ccc(O)cc3)C(=O)N[C@@H](CC(C)C)C(=O)N[C@@H](C(C)C)C(=O)N[C@H](C(=O)NCC(=O)N[C@@H](CC(=O)O)C(=O)N[C@@H](CCCNC(=N)N)C(=O)NCC(=O)N[C@@H](Cc3ccccc3)C(=O)N[C@@H](Cc3ccc(O)cc3)C(=O)N[C@@H](Cc3ccccc3)C(=O)N[C@@H](CC(N)=O)C(=O)N[C@@H](CCCCN)C(=O)N3CCC[C@H]3C(=O)N[C@H](C(=O)N[C@@H](CCC(=O)O)C(=O)N[C@@H](CCC(=O)O)C(=O)O)[C@@H](C)O)CSSC[C@@H](C(=O)N[C@@H](C)C(N)=O)NC(=O)[C@H](Cc3ccc(O)cc3)NC(=O)[C@H](CCSC)NC(=O)[C@H](CCC(=O)O)NC(=O)[C@H](CC(C)C)NC(=O)[C@H](CCCNC(=N)N)NC(=O)[C@H](CCCNC(=N)N)NC(=O)[C@H](CC(C)C)NC(=O)[C@H](CC(=O)O)NC2=O)NC1=O)C(C)C [IGF-1 A:B(E10 Y16L17)-E31E3 2B-COOH],% Insulin,"insulin receptor [2]; Table 10, Insulin Receptor",18.1% and 31.7%
same,% insulin (in test),"insulin receptor [3]; Table 9, Insulin Receptor",36.5%
same,% native insulin activity (0.6 nM),"insulin receptor [3]; Table 9, Insulin Receptor",50.0%
same,% IGF-1 (in test),"IGF-1 receptor [4]; Table 9, IGF-1 Receptor",3.0%
same,Ratio,IGF-1 receptor [4]; [5],14.3
CC[C@H](C)[C@H](NC(=O)CN)C(=O)N[C@H](C(=O)N[C@@H](CC(=O)O)C(=O)N[C@@H](CCC(=O)O)C(=O)N[C@H]1CSSC[C@@H]2NC(=O)[C@H](CO)NC(=O)[C@H](CCCNC(=N)N)NC(=O)[C@H](Cc3ccccc3)NC(=O)[C@H](CSSC[C@H](NC(=O)[C@H](CC(C)C)NC(=O)[C@@H](NC(=O)[C@H](CCC(=O)O)NC(=O)[C@@H]3CCCN3C(=O)CN)[C@@H](C)O)C(=O)NCC(=O)N[C@@H](C)C(=O)N[C@@H](CCC(=O)O)C(=O)N[C@@H](CC(C)C)C(=O)N[C@@H](C(C)C)C(=O)N[C@@H](CC(=O)O)C(=O)N[C@@H](C)C(=O)N[C@@H](CC(C)C)C(=O)N[C@@H](Cc3ccc(O)cc3)C(=O)N[C@@H](CC(C)C)C(=O)N[C@@H](C(C)C)C(=O)N[C@H](C(=O)NCC(=O)N[C@@H](CC(=O)O)C(=O)N[C@@H](CCCNC(=N)N)C(=O)NCC(=O)N[C@@H](Cc3ccccc3)C(=O)N[C@@H](Cc3ccc(O)cc3)C(=O)N[C@@H](Cc3ccccc3)C(=O)N[C@@H](CC(N)=O)C(=O)N[C@@H](CCCCN)C(=O)N3CCC[C@H]3C(=O)N[C@H](C(N)=O)[C@@H](C)O)CSSC[C@@H](C(=O)N[C@@H](C)C(N)=O)NC(=O)[C@H](Cc3ccc(O)cc3)NC(=O)[C@H](CCSC)NC(=O)[C@H](CCC(=O)O)NC(=O)[C@H](CC(C)C)NC(=O)[C@H](CCCNC(=N)N)NC(=O)[C@H](CCCNC(=N)N)NC(=O)[C@H](CC(C)C)NC(=O)[C@H](CC(=O)O)NC2=O)NC1=O)C(C)C [IGF-1 A:B(E10Y16L17)],% IGF,"IGF-1 receptor [1]; Table 10, IGF-1 Receptor",13%
same,% Insulin,"insulin receptor [2]; Table 10, Insulin Receptor",49.2%
same,IC50,insulin receptor [3]; IC50:,0.51 nM
same,% insulin (in test),"insulin receptor [3]; Table 9, Insulin Receptor",58.7% and 98.8%
same,% native insulin activity (0.6 nM),"insulin receptor [3]; Table 9, Insulin Receptor",90.9% and 117.6%
same,% IGF-1 (in test),"IGF-1 receptor [4]; Table 9, IGF-1 Receptor",6.8% and 5.0%
same,IC80,"IGF-1 receptor [4]; Table 9, IGF-1 Receptor",12.2 nM
same,Ratio,IGF-1 receptor [4]; [5],11.9
